From patent US8952030B2, “Morphinan derivative” (priority 2011, dated 2015) come the findings set out here.

Common to all, as to format: cell-based
The target in assay [1] is T1, opioid μ receptor (Homo sapiens, UniProt P35372).
T1 construct: expressed in transfected cells; host or cells: CHO cells
Nature of the assay: Opioid receptor functional test (Lance Ultra cAMP Kit), μ receptor agonist activity. The settings on record: for EC50: CHO cells expressing μ opioid receptor, 10 μM forskolin, cAMP; for Emax at 10 µM: maximum concentration (10 μM), reaction did not reach the maximum, EC50 N.C., relative to DAMGO. On the procedure:
(§1) Functional activities of the compounds of the present invention for the μ, […], and κ opioid receptors were investigated.
(§2) The test was performed according to a prescribed method by using Lance Ultra cAMP Kit (Perkin-Elmer). The agonist activities were evaluated as follows. The CHO cells expressing each opioid receptor (μ, δ, or κ) and a test compound were reacted in an assay buffer (1×HBSS, […], pH 7.4, […] IBMX (isobutylmethylxanthine), 7.5% BSA) for 30 minutes in the presence of 10 μM forskolin. Then, the cAMP detection reagent included in the kit was added, and after 1 hour, time-resolved fluorescence measurements were performed by using the EnVision plate reader (Perkin-Elmer). A dose-responce curve of the test compound was obtained from fluorescence values measured at 665 nm, and EC50 value and Emax value were calculated. The Emax value was calculated as a ratio of the maximum responce of the test compound with respect to the maximum responce of each control agent (SNC80 for δ, DAMGO for μ, U-69593 for κ) taken as 100%.
(§3) 1): Hydrochloride was used.

The target of assay [2] is T2, opioid δ receptor (Homo sapiens, UniProt P41143).
T2 construct: expressed in transfected cells; host or cells: CHO cells
Nature of the assay: Opioid receptor functional test (Lance Ultra cAMP Kit), δ receptor agonist activity. Conditions: hydrochloride was used; for EC50: CHO cells expressing δ opioid receptor, 10 μM forskolin, cAMP, read-out: δ Receptor EC50 value; for Emax: maximum response relative to SNC80 taken as 100%, read-out: δ Receptor Emax. On the procedure:
as §1, §2, §3

The target of assay [3] is T3, opioid κ receptor (Homo sapiens, UniProt P41145).
T3 construct: expressed in transfected cells; host or cells: CHO cells
Nature of the assay: Opioid receptor functional test (Lance Ultra cAMP Kit), κ receptor agonist activity. Conditions: for Emax at 10 µM: maximum concentration (10 μM), reaction did not reach the maximum, EC50 N.C., relative to U-69593. The procedure: as §1, §2, §3

Where [4] appears, read: maximum response relative to DAMGO taken as 100%, hydrochloride was used, read-out: μ Receptor Emax.
Setting [5] is: CHO cells expressing κ opioid receptor, 10 μM forskolin, cAMP, hydrochloride was used, read-out: κ Receptor EC50 value.
[6] abbreviates: maximum response relative to U-69593 taken as 100%, hydrochloride was used, read-out: κ Receptor Emax.
Where [7] appears, read: hydrochloride was used, read-out: μ Receptor responce rate at the maximum concentration (reference value).
Setting [8] is: hydrochloride was used, read-out: κ Receptor responce rate at the maximum concentration (reference value).

Where two headings read alike, the source gives them in different places.

T3 sequence (P41145 whole entry): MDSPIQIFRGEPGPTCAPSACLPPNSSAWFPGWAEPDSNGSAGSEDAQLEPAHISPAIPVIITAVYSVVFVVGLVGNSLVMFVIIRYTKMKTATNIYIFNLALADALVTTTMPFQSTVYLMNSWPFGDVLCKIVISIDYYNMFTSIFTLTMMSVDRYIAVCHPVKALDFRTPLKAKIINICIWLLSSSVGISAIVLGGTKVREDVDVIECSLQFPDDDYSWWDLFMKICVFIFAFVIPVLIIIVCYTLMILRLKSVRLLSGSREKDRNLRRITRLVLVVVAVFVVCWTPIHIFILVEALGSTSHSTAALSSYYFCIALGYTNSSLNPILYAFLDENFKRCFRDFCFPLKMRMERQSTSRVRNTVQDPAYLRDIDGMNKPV
T2 sequence (P41143 whole entry): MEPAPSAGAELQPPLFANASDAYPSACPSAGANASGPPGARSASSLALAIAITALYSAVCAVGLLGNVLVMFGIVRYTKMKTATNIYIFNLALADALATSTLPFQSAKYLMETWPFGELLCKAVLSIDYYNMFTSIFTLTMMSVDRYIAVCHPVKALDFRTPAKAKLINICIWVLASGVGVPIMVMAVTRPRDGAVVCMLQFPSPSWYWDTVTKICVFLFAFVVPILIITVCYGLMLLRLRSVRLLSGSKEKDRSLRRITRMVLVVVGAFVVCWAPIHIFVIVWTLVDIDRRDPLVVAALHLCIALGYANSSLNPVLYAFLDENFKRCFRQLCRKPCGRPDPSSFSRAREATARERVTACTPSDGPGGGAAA
T1 sequence (P35372 whole entry): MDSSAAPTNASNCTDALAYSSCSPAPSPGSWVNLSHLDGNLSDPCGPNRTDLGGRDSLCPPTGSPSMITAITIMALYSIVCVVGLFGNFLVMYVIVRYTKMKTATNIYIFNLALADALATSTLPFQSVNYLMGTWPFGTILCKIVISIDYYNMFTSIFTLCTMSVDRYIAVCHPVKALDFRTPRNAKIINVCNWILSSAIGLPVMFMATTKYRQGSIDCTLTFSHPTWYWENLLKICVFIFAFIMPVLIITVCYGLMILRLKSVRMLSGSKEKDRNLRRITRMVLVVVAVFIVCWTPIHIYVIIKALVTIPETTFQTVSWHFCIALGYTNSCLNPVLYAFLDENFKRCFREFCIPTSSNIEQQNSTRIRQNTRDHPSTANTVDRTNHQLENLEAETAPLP

What is called EC50 is the concentration that produces a half-maximal response. `Cc1cc(C)nc(N2C[C@H]3C[C@@]45CCC2C3[C@@]42CCN(CC3CC3)[C@@H]5Cc3cccc(O)c32)n1` (stereo partly drawn) [Compound 293, (1S,5aS,6R,11bS)-14-(cyclopropylmethyl)-3-(4,6-dimethylpyrimidin-2-yl)-2,3,3a,4,5,6,7,11c-octahydro-1H-6,11b-(iminoethano)-1,5a-methanonaphtho[1,2-e]indol-11-ol]: the EC50 in assay [1] (hydrochloride was used) was greater than 50 nM; in assay [2] it was less than 10 nM; in assay [3] (setting [5]) it was greater than 50 nM. The Emax in assay [1] (setting [4]) was 17%; in assay [2] it was 91%; in assay [3] (setting [6]), 51%.

For `CC(C)N(Cc1ccccc1)C(=O)N1C[C@H]2C[C@@]34CCC1C2[C@@]31CCN(CC2CC2)[C@@H]4Cc2ccc(O)cc21` (stereo partly drawn) [Compound 155, (1S,5aS,6R,11bR)—N-benzyl-14-(cyclopropylmethyl)-10-hydroxy-N-isopropyl-3a,4,5,6,7,11c-hexahydro-1H-6,11b-(iminoethano)-1,5a-methanonaphtho[1,2-e]indole-3(2H)-carboxamide], the Emax at 10 µM in assay [1] (setting [7]) worked out at 3%. Also, the half-maximal effective concentration (EC50) was less than 1 nM in assay [2] and greater than 1 nM in assay [3] (setting [5]). Further, the results for the Emax in assay [2] and in assay [3] (setting [6]) were 91% and 47%, respectively.

As for `O=C(c1ccccc1)N1C[C@H]2O[C@@]34CC[C@@H]1[C@@H]2[C@@]31CCN(CCO)[C@@H]4Cc2ccc(O)cc21` [Compound 27, [(1S,3aR,5aS,6R,11bR,11cS)-10-hydroxy-14-(2-hydroxyethyl)-1,2,3a,4,5,6,7,11c-octahydro-3H-6,11b-(iminoethano)-1,5a-epoxynaphtho[1,2-e]indol-3-yl](phenyl)methanone], the EC50 in assay [1] (hydrochloride was used) was greater than 50 nM; in assay [2], less than 10 nM. The Emax in assay [1] (setting [4]) was 34%; in assay [2], 95%. The Emax at 10 µM in assay [3] (setting [8]) was 33%.

With `O=C(c1ccccc1)N1C[C@H]2O[C@@]34CC[C@@H]1[C@@H]2[C@@]31CCN(CC2CC2)[C@@H]4Cc2ccc(O)cc21` [Compound 10, [(1S,3aR,5aS,6R,11bR,11cS)-14-(cyclopropylmethyl)-10-hydroxy-1,2,3a,4,5,6,7,11c-octahydro-3H-6,11b-(iminoethano)-1,5a-epoxynaphtho[1,2-e]indol-3-yl](phenyl)methanone], the Emax in assay [1] (read-out: μ Receptor responce rate at the maximum concentration (reference value)) is 3.9%; in assay [2], 127%; in assay [3] (read-out: κ Receptor responce rate at the maximum concentration (reference value)) it was 2.9%. Besides, the EC50 in assay [2] was less than 1 nM.

Regarding `Cc1cc(C)nc(N2C[C@H]3CC45CCC2C3C42CCN(CC3CC3)C5Cc3ccccc32)n1` (stereo partly shown) [Compound 300], the EC50 in assay [1] (hydrochloride was used) is greater than 100 nM; in assay [2] it was less than 50 nM; in assay [3] (setting [5]) it was greater than 500 nM. Also, the Emax is 26% in assay [1] (setting [4]), 105% in assay [2] and 39% in assay [3] (setting [6]).

Turning to `Oc1ccc2c(c1)C13C(O)CN(CC4CC4)C(C2)C12CCC1C3[C@@H](CN1Cc1ccccc1)O2` (stereo partly drawn) [Compound 329, (1S,3aR,5aS,6R,11bS,11cS,12R)-3-Benzyl-14-(cyclopropylmethyl)-1,2,3a,4,5,6,7,11c-octahydro-1H-6,11b-(iminoethano)-1,5a-epoxynaphtho[1,2-e]indole-10,12-diol], in assay [1] (setting [7]), the Emax at 10 µM worked out at 0.9%. Also, the EC50 is less than 1 nM in assay [2] and greater than 10 nM in assay [3] (setting [5]). The Emax stood at 76% in assay [2] and 14% in assay [3] (setting [6]).

Regarding `O=C(N1CCCCC1)N1C[C@H]2CC34CCC1C2C31CCN(CC2CC2)C4Cc2ccc(O)cc21` (stereo partly shown) [Compound 167], the Emax at 10 µM in assay [1] (setting [7]) was determined as 4.6%. Further, the EC50 in assay [2] is less than 1 nM; in assay [3] (setting [5]) it was greater than 1 nM. In addition, the Emax worked out at 96% in assay [2] and 22% in assay [3] (setting [6]).

With `CCCN1CC[C@@]23c4cc(O)ccc4C[C@@H]1[C@]21CC[C@@H]2[C@H]3[C@@H](CN2C(=O)c2ccccc2)C1` [Compound 83, [(1S,3aR,5aS,6R,11bR,11cS)-10-hydroxy-14-propyl-1,2,3a,4,5,6,7,11c-octahydro-3H-6,11b-(iminoethano)-1,5a-methanonaphtho[1,2-e]indol-3-yl](phenyl)methanone], the Emax at 10 µM is 7.9% in assay [1] (setting [7]) and 2.1% in assay [3] (setting [8]). For the same molecule, in assay [2], the EC50 is less than 1 nM. The Emax in assay [2] came out at 99%.

Turning to `Oc1ccc2c(c1)C13CCN(CC4CC4)C(C2)C12CCC1C3[C@@H](CN1c1nccs1)C2` (stereo partly shown) [Compound 241], in assay [1] (setting [7]), the Emax at 10 µM worked out at 11%. Besides, the values for the EC50 in assay [2] and in assay [3] (setting [5]) were less than 10 nM and greater than 1 nM, respectively. Besides, the Emax in assay [2] amounted to 81%; in assay [3] (setting [6]), 33%.

For the molecule `O=C(c1ccccc1)N1C[C@H]2C[C@@]34CC[C@@H]1[C@@H]2[C@@]31CCN(CCF)[C@@H]4Cc2ccc(O)cc21` [Compound 84, [(1S,3aR,5aS,6R,11bR,11cS)-14-(2-fluoroethyl)-10-hydroxy-1,2,3a,4,5,6,7,11c-octahydro-3H-6,11b-(iminoethano)-1,5a-methanonaphtho[1,2-e]indol-3-yl](phenyl)methanone], the Emax at 10 µM in assay [1] (setting [7]) came out at 20%. In assay [2], the EC50 is less than 10 nM and the Emax amounted to 99%. In addition, in assay [3] (setting [8]), the Emax at 10 µM was 5.9%.

In the case of `Nc1ccc2c(c1)[C@]13CCN(CC4CC4)[C@H](C2)[C@]12CCC1C3[C@@H](CN1C(=O)c1ccccc1)O2` (stereo partly drawn) [Compound 308, [(1S,5aS,6R,11bR)-10-Amino-14-(cyclopropylmethyl)-4,5,6,7-tetrahydro-1H-6,11b-(iminoethano)-1,5a-epoxynaphtho[1,2-e]indol-3(2H,3aH,11cH)-yl](phenyl)methanone], the Emax at 10 µM in assay [1] (setting [7]) was determined as 2.5%. The EC50 in assay [2] was less than 10 nM; in assay [3] (setting [5]), greater than 100 nM. Further, the results for the Emax in assay [2] and in assay [3] (setting [6]) were 94% and 38%, respectively.

With `O=C(c1ccco1)N1C[C@H]2O[C@@]34CC[C@@H]1[C@@H]2[C@@]31CCN(CC2CC2)[C@@H]4Cc2ccc(O)cc21` [Compound 50, [(1S,3aR,5aS,6R,11bR,11cS)-14-cyclopropylmethyl-10-hydroxy-1,2,3a,4,5,6,7,11c-octahydro-3H-6,11b-(iminoethano)-1,5a-epoxynaphtho[1,2-e]indol-3-yl](2-furyl)methanone], the Emax at 10 µM in assay [1] (setting [7]) was 5.4%. For the same molecule, in assay [2], the EC50 was less than 1 nM and the Emax is 82%. For the same molecule, the Emax at 10 µM in assay [3] (setting [8]) was determined as 12%.

Turning to `CN1CC[C@@]23c4cc(O)ccc4C[C@@H]1[C@]21CC[C@@H]2[C@H]3[C@@H](CN2C(=O)c2ccccc2)O1` [Compound 12, [(1S,3aR,5aS,6R,11bR,11cS)-10-hydroxy-14-methyl-1,2,3a,4,5,6,7,11c-octahydro-3H-6,11b-(iminoethano)-1,5a-epoxynaphtho[1,2-e]indol-3-yl](phenyl)methanone], the EC50 in assay [1] (hydrochloride was used) was greater than 1 nM; in assay [2] it was less than 1 nM; in assay [3], greater than 10 nM. The Emax was 103% in assay [1] (setting [4]), 94% in assay [2] and 96% in assay [3] (read-out: κ Receptor Emax).

For the molecule `O=C(c1ccccc1)N1C[C@H]2O[C@@]34CC[C@@H]1[C@@H]2[C@@]31CCN(CC2CC2)[C@@H]4Cc2cccc(O)c21` [Compound 68, [(1S,3aR,5aS,6R,11bR,11cS)-14-(cyclopropylmethyl)-11-hydroxy-1,2,3a,4,5,6,7,11c-octahydro-3H-6,11b-(iminoethano)-1,5a-epoxynaphtho[1,2-e]indol-3-yl](phenyl)methanone], the results for the EC50 in assay [1] (hydrochloride was used), in assay [2] and in assay [3] (setting [5]) were greater than 100 nM, less than 10 nM and greater than 100 nM, respectively. Also, the Emax was 56% in assay [1] (setting [4]), 90% in assay [2] and 99% in assay [3] (setting [6]).
